In US11957713B2, “Compositions and methods for treating diseases and disorders of the central nervous system” (priority 2016, dated 2024):

Key:
brain-resident μP = test: Intra-brain (ICV) administration of busulfan through a cannula in the lateral ventricles
[1] = tested on: bone marrow and brain clonogenic cells; test: Colony forming unit (CFU) output of bone marrow and brain cells after conditioning; assay type: in vivo, mice; details: busulfan conditioning, 14 days after plating
Description: FIG. 6A depicts an experimental scheme for HCT. CFUs were plated from bone marrow (BM) and brain of naïve (UT), BU-treated and irradiated (IRR) mice, as well as from mice previously transplanted with CD45.2 GFP-transduced HSPCs (BU-HCT). FIG. 6B is a graph depicting number of colonies (#CFC) obtained from the tissues of BU and IRR animals. FIG. 6C is a graph depicting number of colonies (#CFC) and of GFP^+ CFCs obtained from the tissues of BU-HCT animals. FIG. 6D is a graph depicting frequency of GFP^+ cells (and lineage differentiation for BM) retrieved by FACS analysis in BM and brain of secondary recipient mice receiving BM or brain cells or peripheral blood mononuclear cells from primary recipients; mice were sacrificed 4 months after transplant.
HSPCs have been identified within extramedullary tissues and thought to be transiently localized at those sites and able to proliferate locally giving rise to tissue-resident myeloid cells, preferentially dendritic cells. Clonogenic potential was referred to the presence of these cells also in the brain, however upon establishment of parabiotic pairs and differently from what observed in other extra-medullary tissues, chimerism between the two animals was not observed in the brain. […]

CD45^+ brain cells = test: γH2AX (flow cytometry, immunofluorescence) and annexin V in brain after systemic busulfan conditioning; assay type: in vivo, mice
Description: FIGS. 15A15-C depict identification of brain-resident putative μ progenitors by BU-susceptibility. […] Inset is a representative laser-scanning confocal microscope photomicrographs of co-immunostaining for γH2AX, neurons (NeuN), microglia (Ibal) or astrocytes (GFAP). Sca1e bar=[…]. Images were acquired at confocal microscope Radiance 2100 (Bio-Rad) 1×70 at magnification 20× and processed by the Soft Work 3.5.0; reconstruction was performed with Adobe Photoshop CS 8.0 software. Magnification 40× in the insets.
Previous studies have provided evidence for the existence of i) a functionally defined microglia precursor population located in the brain and susceptible to ablation upon administration of a busulfan-based conditioning and that may coincide with endogenous CNS-resident microglial progenitors (μP). Phosphorylated histone 2AX (γH2AX) is a sensitive and specific biomarker to track the cells targeted by busulfan in the brain. Thus, functional brain resident μP could be identified by taking advantage of busulfan and γH2AX, which is a pharmacodynamic marker of its cytotoxicity within these cells. γH2AX was investigated as a biomarker of busulfan cytotoxicity. In particular, the presence, distribution and cellular localization of γH2AX were studied by flow cytometry (FC) and immunofluorescence (IF) on brain slices from mice treated with systemic busulfan conditioning. […] By IF, γH2AX was hardly detectable in control mice, except for some γH2AX^+ foci found in few neuronal cells, mainly localized in the hippocampus (FIG. 16C top picture), where a correlation between physiological neuronal activity and H2AX phosphorylation has previously been shown. […] Similar experiments are on going in mice expressing reporter genes expressed by the promoter of markers of hematopoietic stem cell- and microglia-specific genes, such as Fgd5 or Cx3Cr1 in order to better track busulfan-susceptible cells.

[2] = tested on: microglia progenitors, CD45^+c-kit^+ cells; test: Pretreatment to induce microglia progenitor proliferation; assay type: in vivo, mice; details: single dose of busulfan 25 mg/kg or ten days oral CSF 1R inhibitor
Description: These NP formulations were injected ICV in the brain of wild type adult animals that were pretreated with i) a single dose of busulfan 25 mg/kg or ii) ten days of oral administered CSF 1R inhibitor ((Elmore et al., Neuron. […] Five days after NP injection, animals were analyzed for the occurrence of Etoposide-mediated killing of microglia cells and/or their progenitors, using busulfan standard treatment (4 doses of 25 mg/kg) as reference for brain microglia progenitor ablation.

Compound: CS(=O)(=O)OCCCCOS(C)(=O)=O [busulfan]
- neurotoxicity and local inflammation (brain-resident μP; ICV administration of busulfan): extensive neurotoxicity and local inflammation
- transplanted HSPC engraftment (brain-resident μP; ICV administration of busulfan, data not shown): nor able to favor transplanted HSPC engraftment
- exposure of brain-resident μP to busulfan versus systemic drug administration (brain-resident μP; ICV administration, different busulfan formulations, data not shown): not able to guarantee exposure of brain-resident μP to busulfan levels comparable to those reached by systemic drug administration
- CFU output [1]: drastic reduction in the CFU output
- early apoptosis by annexin V staining (CD45^+ brain cells; CD45^+ brain cells, particularly CD11b^+ and c-kit^+, post-busulfan): early apoptosis is also detected
- γH2AX signal by immunofluorescence on brain slices (CD45^+ brain cells; busulfan-treated mice, lateral ventricles, SVZ, RMS): γH2AX^+ signal was increased in nuclei of cells lining the lateral ventricles
- γH2AX signal by flow cytometry (CD45^+ brain cells; busulfan-treated versus control untreated, live CD45^+ cells, 1 and 5 days from the last busulfan dose): increase of γH2AX signal
- proliferation of microglia progenitors / expansion of CD45^+c-kit^+ cells in brain [2]: induce the proliferation of microglia progenitors and/or expand CD45^+c-kit^+ cells in the brain
